The source of these data is patent publication US20030224942A1, “Alkylamino-1,3,5-triazines, processes for their preparation and their use as herbicides and plant growth regulators” (priority 2001, published 2003).

Experiment [1] concerns Chenopodium spp., Papaver spp., Polygonum spp., Veronica spp. or Viola spp. The experiment in a line: Post-emergence effect on weeds (greenhouse pot test, visual scoring). The experiment is classed as in vivo, monocotyledonous and dicotyledonous weeds. Particulars: treated at three-leaf stage; visual scoring after about 3 to 4 weeks; application rate of 0.5 kg and less of active substance per hectare.

Experiment [2] has as its system Cyperus spp., Echinochloa spp., Digitaria spp., Sagitaria spp. and Scirpus spp. In words: Action on harmful plants in rice (paddy rice conditions, visual scoring). In kind it is in vivo, typical rice weeds (gramineous and broad-leaved). To be noted: applied into the dammed water, visual scoring about three weeks after application. In short, it runs like this:
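Rice and typical gramineous and broad-leaved rice weeds grown in closed pots in greenhouse under paddy conditions (2-3 cm water) to three-leaf stage (Echinochloa crus-galli 1.5-leaf), then treated with compounds. Plants kept under optimum greenhouse conditions throughout; effect scored visually.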

Take `CCC(F)c1nc(N)nc(NC(C)c2ccc(F)c(C(F)=C(F)F)c2)n1` (stereo not shown) [Product P27.5]: in experiment [1], the “herbicidal activity post-emergence against harmful plants” value (from here on “herbicidal activity post-emergence”) is “very good herbicidal activity”. The “herbicidal activity against harmful plants which are typical for rice crops” value (“herbicidal activity … for rice crops” for short) in experiment [2] is recorded as “very good herbicidal activity”.

With `CCC(F)c1nc(N)nc(NC(C)c2cc(F)c(C(F)=C(F)F)c(F)c2)n1` (stereo not shown) [Product P27.49], the “herbicidal activity post-emergence” value in experiment [1] was “very good herbicidal activity”. In experiment [2], the “herbicidal activity … for rice crops” value is recorded as “very good herbicidal activity”.

In the case of `C#Cc1cc(C(C)Nc2nc(N)nc(C(F)CC)n2)ccc1F` (stereo not shown) [Product P27.309], the “herbicidal activity post-emergence” value in experiment [1] is “very good herbicidal activity”. For the same compound, in experiment [2], the “herbicidal activity … for rice crops” value was “very good herbicidal activity”.

As to `C#Cc1ccc(C(C)Nc2nc(N)nc(C(F)CC)n2)cc1C` (stereo not shown) [Product P27.335], the “herbicidal activity post-emergence” value in experiment [1] was “very good herbicidal activity”. Further, the “herbicidal activity … for rice crops” value in experiment [2] is recorded as “very good herbicidal activity”.

Turning to `C#Cc1c(F)cc(C(C)Nc2nc(N)nc(C(F)CC)n2)cc1F` (stereo not shown) [Product P27.352], the “herbicidal activity post-emergence” value in experiment [1] is recorded as “very good herbicidal activity”. Also, the “herbicidal activity … for rice crops” value in experiment [2] is given as “very good herbicidal activity”.

For `CC#Cc1cc(C(C)Nc2nc(N)nc(C(F)CC)n2)ccc1F` (stereo not shown) [Product P27.384], in experiment [1], the “herbicidal activity post-emergence” value is reported as “very good herbicidal activity”. Also, in experiment [2], the “herbicidal activity … for rice crops” value was “very good herbicidal activity”.

For the compound `CC#Cc1c(F)cc(C(C)Nc2nc(N)nc(C(F)CC)n2)cc1F` (stereo not shown) [Product P27.428], in experiment [1], the “herbicidal activity post-emergence” value is listed as “very good herbicidal activity”. For the same compound, the “herbicidal activity … for rice crops” value in experiment [2] is reported as “very good herbicidal activity”.

Regarding `CCC(F)c1nc(N)nc(NC(C)c2ccc(F)c(C#CC(C)O)c2)n1` (stereo not shown) [Product P27.840], the “herbicidal activity post-emergence” value in experiment [1] was “very good herbicidal activity”. Besides, the “herbicidal activity … for rice crops” value in experiment [2] is reported as “very good herbicidal activity”.

For `CCC(F)c1nc(N)nc(NC(C)c2ccc(F)c(C3CC3)c2)n1` (stereo not shown) [Product P27.916], the “herbicidal activity post-emergence” value in experiment [1] is “very good herbicidal activity”. Further, the “herbicidal activity … for rice crops” value in experiment [2] is recorded as “very good herbicidal activity”.

For the compound `CCC(F)c1nc(N)nc(NC(C)c2cc(F)c(C3CC3)c(F)c2)n1` (stereo not shown) [Product P27.960], the “herbicidal activity post-emergence” value in experiment [1] was “very good herbicidal activity”. Also, the “herbicidal activity … for rice crops” value in experiment [2] is given as “very good herbicidal activity”.

As for `CCC(F)c1nc(N)nc(NC(C)c2cccc(C(F)=C(F)F)c2)n1` (stereo not shown) [Product P27.1567], in experiment [1], the “herbicidal activity post-emergence” value is given as “very good herbicidal activity”. Also, in experiment [2], the “herbicidal activity … for rice crops” value is on record as “very good herbicidal activity”.

`CCC(F)c1nc(N)nc(NC(C)c2ccc(C(F)=C(F)F)cc2)n1` (stereo not shown) [Product P27.1568]: in experiment [1], the “herbicidal activity post-emergence” value was “very good herbicidal activity”. Further, the “herbicidal activity … for rice crops” value in experiment [2] is recorded as “very good herbicidal activity”.

In the case of `C#Cc1cccc(C(C)Nc2nc(N)nc(C(F)CC)n2)c1` (stereo not shown) [Product P27.1579], the “herbicidal activity post-emergence” value in experiment [1] was “very good herbicidal activity”. The “herbicidal activity … for rice crops” value in experiment [2] is “very good herbicidal activity”.

In the case of `C#Cc1ccc(C(C)Nc2nc(N)nc(C(F)CC)n2)cc1` (stereo not shown) [Product P27.1580], the “herbicidal activity post-emergence” value in experiment [1] is given as “very good herbicidal activity”. The “herbicidal activity … for rice crops” value in experiment [2] is “very good herbicidal activity”.

`CC#Cc1cccc(C(C)Nc2nc(N)nc(C(F)CC)n2)c1` (stereo not shown) [Product P27.1582]: the “herbicidal activity post-emergence” value in experiment [1] was “very good herbicidal activity”. In addition, the “herbicidal activity … for rice crops” value in experiment [2] was “very good herbicidal activity”.

Take `CC#Cc1ccc(C(C)Nc2nc(N)nc(C(F)CC)n2)cc1` (stereo not shown) [Product P27.1583]: the “herbicidal activity post-emergence” value in experiment [1] was “very good herbicidal activity”. Besides, the “herbicidal activity … for rice crops” value in experiment [2] is recorded as “very good herbicidal activity”.

For the compound `CCC(F)c1nc(N)nc(NC(C)c2cccc(C#CC(C)O)c2)n1` (stereo not shown) [Product P27.1600], in experiment [1], the “herbicidal activity post-emergence” value is recorded as “very good herbicidal activity”. The “herbicidal activity … for rice crops” value in experiment [2] was “very good herbicidal activity”.

Consider `CCC(F)c1nc(N)nc(NC(C)c2ccc(C#CC(C)O)cc2)n1` (stereo not shown) [Product P27.1601], for which the “herbicidal activity post-emergence” value in experiment [1] is reported as “very good herbicidal activity”. For the same compound, the “herbicidal activity … for rice crops” value in experiment [2] was “very good herbicidal activity”.

As for `CCC(F)c1nc(N)nc(NC(C)c2cccc(C3CC3)c2)n1` (stereo not shown) [Product P27.1603], the “herbicidal activity post-emergence” value in experiment [1] is “very good herbicidal activity”. Moreover, the “herbicidal activity … for rice crops” value in experiment [2] was “very good herbicidal activity”.

For `CCC(F)c1nc(N)nc(NC(C)c2ccc(C3CC3)cc2)n1` (stereo not shown) [Product P27.1604], the “herbicidal activity post-emergence” value in experiment [1] is “very good herbicidal activity”. For the same compound, in experiment [2], the “herbicidal activity … for rice crops” value is “very good herbicidal activity”.

With `C#Cc1cc(C(Nc2nc(N)nc(C(F)CC)n2)C2CC2)ccc1F` (stereo not shown) [Product P29.309], the “herbicidal activity post-emergence” value in experiment [1] is recorded as “very good herbicidal activity”. Besides, the “herbicidal activity … for rice crops” value in experiment [2] is on record as “very good herbicidal activity”.

With `C#Cc1c(F)cc(C(Nc2nc(N)nc(C(F)CC)n2)C2CC2)cc1F` (stereo not shown) [Product P29.352], the “herbicidal activity post-emergence” value in experiment [1] is given as “very good herbicidal activity”. Also, the “herbicidal activity … for rice crops” value in experiment [2] was “very good herbicidal activity”.

Consider `CC#Cc1cc(C(Nc2nc(N)nc(C(F)CC)n2)C2CC2)ccc1F` (stereo not shown) [Product P29.384], for which, in experiment [1], the “herbicidal activity post-emergence” value is listed as “very good herbicidal activity”. Besides, the “herbicidal activity … for rice crops” value in experiment [2] is “very good herbicidal activity”.

On to `CC#Cc1c(F)cc(C(Nc2nc(N)nc(C(F)CC)n2)C2CC2)cc1F` (stereo not shown) [Product P29.428], for which, in experiment [1], the “herbicidal activity post-emergence” value is on record as “very good herbicidal activity”. Also, the “herbicidal activity … for rice crops” value in experiment [2] is “very good herbicidal activity”.

Regarding `CCC(F)c1nc(N)nc(NC(c2cccc(C(F)=C(F)F)c2)C2CC2)n1` (stereo not shown) [Product P29.1567], the “herbicidal activity post-emergence” value in experiment [1] is “very good herbicidal activity”. The “herbicidal activity … for rice crops” value in experiment [2] was “very good herbicidal activity”.

Consider `CCC(F)c1nc(N)nc(NC(c2ccc(C(F)=C(F)F)cc2)C2CC2)n1` (stereo not shown) [Product P29.1568], for which, in experiment [1], the “herbicidal activity post-emergence” value is listed as “very good herbicidal activity”. In experiment [2], the “herbicidal activity … for rice crops” value is listed as “very good herbicidal activity”.

Take `C#Cc1cccc(C(Nc2nc(N)nc(C(F)CC)n2)C2CC2)c1` (stereo not shown) [Product P29.1579]: in experiment [1], the “herbicidal activity post-emergence” value is “very good herbicidal activity”. Further, in experiment [2], the “herbicidal activity … for rice crops” value is listed as “very good herbicidal activity”.

Regarding `C#Cc1ccc(C(Nc2nc(N)nc(C(F)CC)n2)C2CC2)cc1` (stereo not shown) [Product P29.1580], in experiment [1], the “herbicidal activity post-emergence” value was “very good herbicidal activity”. In experiment [2], the “herbicidal activity … for rice crops” value is reported as “very good herbicidal activity”.

`CC#Cc1cccc(C(Nc2nc(N)nc(C(F)CC)n2)C2CC2)c1` (stereo not shown) [Product P29.1582]: in experiment [1], the “herbicidal activity post-emergence” value is recorded as “very good herbicidal activity”. Besides, the “herbicidal activity … for rice crops” value in experiment [2] is listed as “very good herbicidal activity”.
